# According to US20140038953A1, “COMPOSITIONS AND METHODS FOR CARDIOVASCULAR DISEASE” (THE GENERAL HOSPITAL CORPORATION, priority 2011, published 2014):
# Tested on: HepG2 cells
# Test: ApoB-100 secretion in HepG2 cells (ELISA)
# Type: cell-based, human
# Conditions: compound 13 100 nM, atorvastatin 1 nM, ALK3-Fc 400 ng/mL
# Protocol: Hepatoma G2 (HepG2) cells and human aortic endothelial cells (HAECs) were purchased from the American type culture collection (Manassas, Va.). HepG2 cells were maintained in Eagle's Minimum Essential Medium (EMEM) supplemented with 10% fetal bovine serum, 100 units/ml of penicillin, 0.1 mg/ml of streptomycin and glutamine. HAECs were cultured in endothelial cell basal medium (EBM 2) supplemented with the EBM2 bullet kit (Lonza, Basel, Switzerland). For experiments, cells were seeded into 6 or 12-well plates (BD Falcon, Franklin Lakes, N.J.) at a concentration of 0.5×10^6 cells per 5 mL of media. HAECs were maintained in EBM 2 with 0.1% FBS without additional growth factors for all experiments. HepG2 cells were grown to 70% confluence before they were incubated in EMEM enriched with 0.1% FBS. ApoB-100 measurements were performed in supernatants from HepG2 that had been incubated in EMEM containing 0.5% bovine serum albumin using a commercially available Human ApoB-100 ELISA kit (Mabtech AB, Nacka Strand, Sweden). BMP2 protein measurements were performed in supernatants from HAECs that had been incubated in EBM2 containing 0.1% FBS using a BMP2 ELISA kit (R&D Systems).
structure (smiles),measurement,setting,value
"CC(C)c1c(C(=O)Nc2ccccc2)c(-c2ccccc2)c(-c2ccc(F)cc2)n1CC[C@@H](O)C[C@@H](O)CC(=O)O [Atorvastatin, atorvastatin, reference compound]",BMP2-induced ApoB-100 secretion,BMP2 100 ng/mL,did not prevent the induction of ApoB-100 synthesis by BMP2
same,basal ApoB-100 secretion (absence of BMP2),,reduced basal apolipoprotein B100 (ApoB-100) secretion
same,basal ApoB-100 secretion (absence of BMP2),listed as atorvastatin,reduced ApoB-100 production in the absence of BMP2
